Assay: Storage stability of acylcarnitine-stable isotopes in methanol solution at room temperature (Reference Example 1, LC-MS/MS residual rate)
Format: physicochemical
Protocol: Acylcarnitine solutions were acquired by dissolving acylcarnitine-stable isotopes into methanol to concentrations listed in Table 3. The acylcarnitine-stable isotopes were measured under the following conditions. The acylcarnitine solutions were measured immediately before storage (prepared at the time of use) and after storage for predetermined periods, and the residual rate (%) was calculated from the acquired peak area ratio using Equation 2 described below.
System: LC-20A series (manufactured by Shimadzu Corporation) and 4000 QTRAP (manufactured by AB Sciex) […]
Mobile phase: mobile phase A, 0.5% (v/v) formic acid aqueous solution mobile phase B, 500 mmol/L ammonium formate aqueous solution: 500 mmol/L ammonium hydroxide (9:1)/methanol=1/9
Analysis time: 70 minutes
LC column: Scherzo SS-C18, 3 μm, 3.0×150 mm (manufactured by Imtact Corporation) Column temperature: 50° C.
Sample injection amount: 5 μL
Ionization mode: ESI (electrospray ionization)
Ion source: Turbo IonSpray
Q1/Q3 is described in Table 3.

[1] = storage period 2 M (two months)

| SMILES | Res. Rt (Residual Rate) (storage period 1 M (one month)) | Res. Rt (Residual Rate) [1] |
| --- | --- | --- |
| [2H]C([2H])([2H])[N+](C)(C)CC(CC(=O)[O-])OC(=O)CCC (stereo not shown) [^2H3-Butyrylcarnitine] | 101.7% | 63.8% |
| [2H]C([2H])([2H])[N+](C)(C)CC(CC(=O)[O-])OC(=O)CCCCCCCCCCC (stereo not shown) [^2H3-Dodecanoylcarnitine] | 103.1% | 84.9% |
| [2H]C([2H])([2H])[N+](C)(C)CC(CC(=O)[O-])OC(=O)CCCCCCCCCCCCCCCCC (stereo not shown) [^2H3-Octadecanoylcarnitine] | 103.7% | 69.6% |
| [2H]C([2H])([2H])[N+](C)(C)CC(CC(=O)[O-])OC(=O)CC(C)(C)O (stereo not shown) [^2H3-(3-Hydroxyisovaleryl)-carnitine] | 99.9% | 97.9% |
| [2H]C([2H])([2H])[N+](CC(CC(=O)[O-])OC(=O)CCCCCCCCCCCCC)(C([2H])([2H])[2H])C([2H])([2H])[2H] (stereo not shown) [^2H9-Myristoylcarnitine] | 103.9% | 67.8% |
| [2H]C([2H])([2H])[N+](C)(C)CC(CC(=O)[O-])OC(=O)CCCCCCCCCCCCCCC (stereo not shown) [^2H3-Palmitoylcarnitine] | 101.2% | 62.6% |
| [2H]C([2H])([2H])[N+](C)(C)CC(CC(=O)[O-])OC(=O)CCCCCCC (stereo not shown) [^2H3-Octanoylcarnitine] | 103.3% | 70.3% |
| [2H]C([2H])([2H])[N+](C)(C)CC(CC(=O)[O-])OC(=O)CCCC(=O)O (stereo not shown) [^2H3-Glutarylcarnitine] | 99.3% | 63.3% |
| [2H]C([2H])([2H])[N+](C)(C)CC(CC(=O)[O-])OC(=O)CC (stereo not shown) [^2H3-Propionylcarnitine] | 97.4% | 38.5% |
| [2H]C([2H])([2H])[N+](CC(CC(=O)[O-])OC(=O)CC(C)C)(C([2H])([2H])[2H])C([2H])([2H])[2H] (stereo not shown) [^2H9-Isovalerylcarnitine] | 100.3% | 99.4% |
| [2H]C([2H])([2H])[N+](C[C@H](O)CC(=O)[O-])(C([2H])([2H])[2H])C([2H])([2H])[2H] [^2H9-Carnitine] | 100.9% | 100.2% |
